Assay results reported in US10144929B2, “Polypeptide inhibitors of Smad3 polypeptide activities” (Mayo Foundation for Medical Education and Research, priority 2016, dated 2018).
“Also recorded” adds a separate entry of the source.

Test system: bleomycin (BLM)-induced lung fibrosis
Experiment: Treatment model of bleomycin (BLM)-induced lung fibrosis
Assay type: in vivo, mice
Conditions: for interstitial fibronectin / lung histology: daily intraperitoneal 0.5 mg/kg from day 14, day 28; for BLM induction of profibrotic genes (collagen 1, connective tissue growth factor, fibronectin), qPCR of lung tissue / total collagen production induced by bleomycin (hydroxyproline content): daily intraperitoneal from day 14, day 28; for peripheral blood oxygen saturation (SpO2) / gas exchange: 2-week treatment interval from day 14
Procedure: FIGS. 5A-D. Bleomycin (BLM)-induced lung remodeling is attenuated by TAT-SH3-2. (A) Hematoxylin and Eosin (H&E), Masson's Trichrome (MT), or fibronectin (anti-fibronectin and Hematoxylin) staining of representative paraffin-embedded lung sections from Control (saline treated) or mice challenged with BLM for 28 days and treated daily with 0.5 mg/kg TAT-SH3-2 or TAT-SH3-2M beginning 14 days following initial BLM insult (×8). (B) qPCR of the indicated genes (Col1, collagen 1; CTGF, connective tissue growth factor; FN, fibronectin) in murine lung tissue harvested on day 28 from mice challenged with BLM (+) or saline (−) and treated daily with vehicle (−; methocel/saline) or the indicated amount (μg) of TAT-SH3-2 or TAT-SH3-2M as in (A). Data reflect mean+/−sd of n=4. (C) Mice were treated with saline or BLM as in (A) and on day 14 administered daily vehicle (−) or the indicated concentration of TAT peptide. Animals were sacrificed on day 28, and hydroxyproline content was determined as described herein. Data reflect mean+/−sd of n=3. *P<0.005, **P<0.002. (D) Mice were treated as in (C), and qPCR of the indicated genes (Col Iα1 (collagen Iα1); CTGF (connective tissue growth factor); and FN (fibronectin)) were assessed in lung tissue harvested on day 28. Data reflect mean+/−sd of n=5. *P<0.005, **P<0.001.
Time-dependent fluctuation of oxygen saturation (SpO2) levels (determined on room air) in mice challenged with BLM (or saline) for 28 days and treated 1×/day with vehicle (methocel/saline), 0.5 mg/kg of TAT-SH3-2 or TAT-SH3-2M beginning 14 days after initial BLM insult. Error bars reflect SEM from n=4. (B) Time-dependent fluctuation of oxygen saturation (SpO2) levels (determined on room air) in mice challenged with BLM (or saline) for 28 days and treated 1×/day with vehicle (methocel/saline) or the indicated concentration of TAT-SH3-2 or TAT-SH3-2M beginning 14 days after initial BLM insult. Error bars reflect mean+/−sd from n=5. *P<0.05, **P<0.01.
Female 18-20 g C57 black mice (Charles River Laboratories) were administered bleomycin (BLM; 0.075 U diluted in 50 μL 0.9% normal saline) or 50 μL 0.9% normal saline alone by tracheal instillation using an intratracheal aerosolized (Penn-century, Wyndmoor, Pa.) as described elsewhere (Andrianifahanana et al., FASEB J., 27(11):4444-54 (2013)). At this time, animals were shaved around the collar region to allow monitoring of dissolved oxygen levels (every 3rd day) on room air using a MouseOX collar clip monitoring system (Starr Life Science Corp. Oakmont, Pa.). TAT-SNX9(SH3) fusion polypeptides were solubilized with DMSO and prepared by thoroughly blending with Methocel (Sigma, Louis, Mo.) at a ratio of 1:7. Mice were treated daily by intraperitoneal injection (100 μL) of a TAT-SNX9(SH3) fusion polypeptide or an equal volume of methocel/saline beginning on day 14. On day 28, mice were euthanized, lungs were dissected, and samples were prepared for immunohistochemistry and other analyses as described elsewhere (Andrianifahanana et al., FASEB J., 27(11):4444-54 (2013); Daniels et al., J. Clin. Invest., 114:1308-16 (2004); and Wang et al., FASEB J., 19:1-11 (2005)).
The Hydroxyproline Assay Kit from Sigma (St. Louis, Mo.) was used to assess total lung collagen levels. Briefly, following sacrifice lung tissue was washed in PBS, and 30 mg homogenized in 300 μL water. One hundred μL samples were hydrolyzed in 12 M HCl, and duplicate 50 μL samples were analyzed according to the manufacturer's recommendations.

## TAT-SH3-2: TAT-SNX9(SH3) fusion polypeptide having SNX9 amino acids 21-51 (31 mer) (TVNEGEIITITNPDVGGGWLEGRNIKGERGL; left off: small tags and cut ends)
FIG. 5 title
  BLM-induced lung remodeling: attenuated
Animals receiving the highest concentration, FIG. 6B
  loss of lung function (SpO2): no additional loss of lung function
  interstitial fibronectin: reduced interstitial fibronectin to essentially basal levels
  lung histology: improved lung histology
  BLM induction of profibrotic genes (collagen 1, connective tissue growth factor, fibronectin), qPCR of lung tissue: significantly reduced
  total collagen production induced by bleomycin (hydroxyproline content): dose-dependent dimunization in total collagen production
Room air
  peripheral blood oxygen saturation (SpO2) / gas exchange: stabilized and/or improved gas exchange; also recorded: dose-dependent improvement in gas exchange
Room air, listed as TAT-SH-2
  peripheral blood oxygen saturation (SpO2) / gas exchange: stabilizes lung gas exchange

## TAT-SH3-2M: TAT-SH3-2 with G to V point mutations at amino acids 36-38; inactive TAT-SNX9 peptide unable to bind pSmad3 (TVNEGEIITITNPDVVVVWLEGRNIKGERGL; left off: small tags and cut ends)
  interstitial fibronectin: ineffective
  lung histology: ineffective
  BLM induction of profibrotic genes (collagen 1, connective tissue growth factor, fibronectin), qPCR of lung tissue: but not TAT-SH3-2M, significantly reduced
  total collagen production induced by bleomycin (hydroxyproline content): ineffective
Room air
  peripheral blood oxygen saturation (SpO2) / gas exchange: analogous decline in SpO2
Room air, FIG. 6B
  decrease in SpO2 during the treatment regime: ~25%
